Assay type in all cases: in vivo
Test [1] concerns Setaria viridis. The experiment in a line: greenhouse pre-emergence treatment, SETVI. Conditions: Setaria viridis, 480 h, 31.25 gai/ha (EC 750 g/l), 20 DAT, SETVI, Table X1, read-out: % activity, solo application. In a few lines:
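Damage rated on 0 to 100 scale (0 = normal growth, 100 = no emergence or total above-ground kill) after 2-4 weeks at species-dependent 10-25° C or 20-35° C. Seeds sown per species in loamy sand, ~3.0% humus, treated right after sowing with aqueous spray of single actives or 10% emulsion-concentrate mixtures, then hooded; additive expectation by Colby.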

The test system of test [2] is Avena fatua. The experiment in a line: greenhouse post-emergence treatment, AVEFA. To be noted: Avena fatua. In a few lines: (§1)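 Scoring used a 0 to 100 scale, with 100 denoting no emergence or full destruction of at least the above-ground parts, recorded within a 2 to 4 week test period. Test plants grew in loamy sand containing about 3.0% humus at 10-25° C. or 20-35° C., after direct sowing or transplanting, and received water-based treatments post-emergence.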

Test [3] relates to Helianthus annuus. The test can be described thus: greenhouse post-emergence treatment, HELAN. To be noted: for % activity: cinmethylin solo (EC 750 g/l), 21 DAT. On the procedure: The culture containers used were plastic pots containing loamy sand with approximately 3.0% of humus as substrate. The seeds of the test plants were sown separately for each species.
For the post-emergence treatment, the test plants were grown to a plant height of from 3 to 15 cm, depending on the plant habit, and only then treated with the active compounds which had been suspended or emulsified in water. To this end, the test plants were either sown directly, and grown in the same containers, or they were first grown separately as seedlings and transplanted into the test containers a few days prior to treatment.
Depending on the species, the plants were kept at 10-25° C. and 20-35° C., respectively.
The test period extended over 2 to 4 weeks. During this time, the plants were tended and their response to the individual treatments was evaluated.
Evaluation was carried out using a scale from 0 to 100. 100 means no emergence of the plants, or complete destruction of at least the above-ground parts, and 0 means no damage or normal course of growth. A good herbicidal activity is given at values of at least 70, and very good herbicidal activity is given at values of at least 85.
The respective stated components A and B, and if appropriate, C were formulated as a 10% by weight strength emulsion concentrate and, with addition of the amount of solvent system, introduced into the spray liquor used for applying the active compound. In the examples, the solvent used was water.
In the examples below, using the method of S. R. Colby (1967) “Calculating synergistic and antagonistic responses of herbicide combinations”, Weeds 15, p. 22ff., the value E, which is expected if the activity of the individual active compounds is only additive, was calculated. E=X+Y−(X·Y/100) where X=effect in percent using herbicide A at an application rate a; • Y=effect in percent using herbicide B at application rate b; • E=expected effect (in %) of herbicide A+herbicide B at application rates a+b.

The test system of test [4] is Lolium multiflorum. The test can be described thus: greenhouse post-emergence treatment, LOLMU. Conditions: Lolium multiflorum. In a few lines:
as §1

The subject of test [5] is Stellaria media. The experiment in a line: greenhouse post-emergence treatment, STEME. To be noted: Stellaria media. In a few lines:
(§2)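 Post-emergence greenhouse spray on 3–15 cm plants, sown direct or transplanted a few days before treatment. Scored visually on a 0–100 scale after 2 to 4 weeks; expected additive effect computed by Colby: E=X+Y−(X·Y/100).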

Test [6] deals with Brachiaria decumbens. The experiment in a line: greenhouse post-emergence treatment, BRADC. To be noted: for % activity: cinmethylin solo (EC 750 g/l); for inhibition at 500000 µg/mL (stock): sc. In a few lines: as §2
Test [7] relates to Galium aparine. The test can be described thus: greenhouse post-emergence treatment, GALAP. To be noted: Galium aparine, 480 h, GALAP, 20 DAT. In a few lines: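 Scale 0–100 damage rating (100 = complete destruction of above-ground parts, 0 = normal growth), read 2 to 4 weeks after post-emergence application of aqueous spray liquor to plants 3–15 cm tall.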
Test [8] concerns Apera spica-venti. The test can be described thus: greenhouse post-emergence treatment, APESV. To be noted: APESV, 20 DAT. In a few lines:
as §2

Setting [9] is: Urochloa decumbens, 504 h, read-out: % activity.
Where [10] appears, read: 480 h, 20 DAT, flufenacet solo 31.25 gai/ha, read-out: % activity.
Setting [11] is: 480 h, 20 DAT, flufenacet solo 125 gai/ha, read-out: % activity.

We go through three compounds from patent publication US10966426B2, “Herbicidal compositions comprising phenylpyrimidines” (BASF SE, priority 2016, dated 2021).

In the case of `Cc1ccccc1CO[C@@H]1C[C@@]2(C(C)C)CC[C@]1(C)O2` (racemic) [cinmethylin], the inhibition at 31.25 g/ha in test [1] amounted to 85%. Further, the pest or weed control at 125 g/ha in test [2] (504 h, read-out: % activity) was 10%; in test [4] (504 h, LOLMU, 21 DAT, solo cinmethylin (EC 750 g/l) 125 gai/ha, read-out: % activity) it was 30%; in test [5] (504 h, read-out: % activity) it was 10%; in test [6] (Urochloa decumbens, 504 h, BRADC, 21 DAT, solo cinmethylin (EC 750 g/l) 125 gai/ha, read-out: % activity), 0%. Also, the “% activity” value in test [3] (62.5 gai/ha, HELAN) amounted to 30%; in test [3] (500 gai/ha, HELAN), 60%; in test [6] (125 gai/ha, 21 DAT, BRADC) it was 0%; in test [6] (500 gai/ha, 21 DAT, BRADC), 20%. In addition, the pest or weed control at 62.5 g/ha in test [4] (504 h, LOLMU, 21 DAT, solo cinmethylin (EC 750 g/l) 62.5 gai/ha, read-out: % activity) turned out to be 0%; in test [5] (504 h, read-out: % activity) it was 0%; in test [6] (setting [9]), 0%. Besides, the pest or weed control at 500 g/ha in test [6] (Urochloa decumbens, 504 h, BRADC, 21 DAT, solo cinmethylin (EC 750 g/l) 500 gai/ha) amounted to 20%. For the same compound, the pest or weed control at 250 g/ha in test [6] (setting [9]) turned out to be 10%.
`CC(C)N(C(=O)COc1nnc(C(F)(F)F)s1)c1ccc(F)cc1` [flufenacet]: the inhibition at 31.25 g/ha came out at 30% in test [2] (setting [10]); 20% in test [4] (setting [10]); 0% in test [6] (Urochloa decumbens, 480 h, 20 DAT, flufenacet solo 31.25 gai/ha). The inhibition at 62.5 g/ha amounted to 65% in test [2] (480 h, 20 DAT, flufenacet solo 62.5 gai/ha); 50% in test [4] (480 h, 20 DAT, flufenacet solo 62.5 gai/ha, read-out: % activity); 0% in test [6] (Urochloa decumbens, 480 h, 20 DAT, flufenacet solo 62.5 gai/ha). Further, the inhibition at 125 g/ha in test [2] (setting [11]) came to 65%; in test [3] (Helianthus annuus, 480 h, 20 DAT, flufenacet solo 125 gai/ha) it was 30%; in test [4] (setting [11]), 85%; in test [6] (Urochloa decumbens, 480 h, 20 DAT, flufenacet solo 125 gai/ha) it was 0%. The inhibition at 250 g/ha in test [4] (480 h, 20 DAT, flufenacet solo 250 gai/ha, read-out: % activity) was determined as 85%; in test [6] (Urochloa decumbens, 480 h, 20 DAT, flufenacet solo 250 gai/ha), 35%. Further, the inhibition at 500000 µg/mL (stock) in test [6] (Urochloa decumbens, 480 h, BRADC, 20 DAT, solo flufenacet (SC 500 g/l) 31.25 gai/ha) is 0%; in test [6] (Urochloa decumbens, 480 h, BRADC, 20 DAT, solo flufenacet (SC 500 g/l) 62.5 gai/ha) it was 0%; in test [6] (Urochloa decumbens, 480 h, BRADC, 20 DAT, solo flufenacet (SC 500 g/l) 125 gai/ha), 0%; in test [6] (Urochloa decumbens, 480 h, BRADC, 20 DAT, solo flufenacet (SC 500 g/l) 250 gai/ha) it was 35%.
For `CCCCCCCCSC(=O)Oc1cc(Cl)nnc1-c1ccccc1` [pyridate], the pest or weed control at 112.5 g/ha is 0% in test [2] (480 h, AVEFA, solo pyridate (WP 45%) 112.5 gai/ha, 20 DAT); 0% in test [4] (480 h, LOLMU, solo pyridate (WP 45%) 112.5 gai/ha, 20 DAT); 40% in test [7] (solo pyridate (WP 45%) 112.5 gai/ha); 0% in test [6] (Urochloa decumbens, 480 h, BRADC, solo pyridate (WP 45%) 112.5 gai/ha, 20 DAT). Further, the pest or weed control at 225 g/ha is 0% in test [2] (480 h, AVEFA, solo pyridate (WP 45%) 225 gai/ha, 20 DAT); 20% in test [4] (480 h, LOLMU, solo pyridate (WP 45%) 225 gai/ha, 20 DAT); 85% in test [7] (solo pyridate (WP 45%) 225 gai/ha); 20% in test [6] (Urochloa decumbens, 480 h, BRADC, solo pyridate (WP 45%) 225 gai/ha, 20 DAT). Further, the pest or weed control at 450 g/ha in test [2] (480 h, AVEFA, solo pyridate (WP 45%) 450 gai/ha, 20 DAT) turned out to be 10%; in test [6] (Urochloa decumbens, 480 h, BRADC, solo pyridate (WP 45%) 450 gai/ha, 20 DAT), 20%. The pest or weed control at 900 g/ha in test [2] (480 h, AVEFA, solo pyridate (WP 45%) 900 gai/ha, 20 DAT) came to 30%; in test [6] (Urochloa decumbens, 480 h, BRADC, solo pyridate (WP 45%) 900 gai/ha, 20 DAT) it was 50%. Also, the inhibition at 112.5 g/ha in test [2] (480 h, pyridate solo 112.5 gai/ha, 20 DAT, AVEFA) worked out at 0%; in test [4] (480 h, pyridate solo 112.5 gai/ha, 20 DAT, LOLMU), 0%; in test [7] (pyridate solo 112.5 gai/ha), 40%; in test [5] (480 h, pyridate solo 112.5 gai/ha, 20 DAT, STEME), 25%; in test [6] (Urochloa decumbens, 480 h, pyridate solo 112.5 gai/ha, 20 DAT, BRADC), 0%; in test [8] (Apera spica-venti, 480 h, pyridate solo 112.5 gai/ha), 0%. The inhibition at 225 g/ha was found to be 0% in test [2] (480 h, pyridate solo 225 gai/ha, 20 DAT, AVEFA); 60% in test [3] (Helianthus annuus, 480 h, pyridate solo 225 gai/ha, 20 DAT, HELAN); 20% in test [4] (480 h, pyridate solo 225 gai/ha, 20 DAT, LOLMU); 85% in test [7] (pyridate solo 225 gai/ha); 20% in test [6] (Urochloa decumbens, 480 h, pyridate solo 225 gai/ha, 20 DAT, BRADC); 0% in test [8] (Apera spica-venti, 480 h, pyridate solo 225 gai/ha). Moreover, the inhibition at 450 g/ha in test [2] (480 h, pyridate solo 450 gai/ha, 20 DAT, AVEFA) turned out to be 10%; in test [3] (Helianthus annuus, 480 h, pyridate solo 450 gai/ha, 20 DAT, HELAN), 70%; in test [5] (480 h, pyridate solo 450 gai/ha, 20 DAT, STEME) it was 55%; in test [6] (Urochloa decumbens, 480 h, pyridate solo 450 gai/ha, 20 DAT, BRADC), 20%; in test [8] (Apera spica-venti, 480 h, pyridate solo 450 gai/ha) it was 0%. Further, the inhibition at 900 g/ha in test [5] (480 h, pyridate solo 900 gai/ha, 20 DAT, STEME) was 70%; in test [6] (Urochloa decumbens, 480 h, pyridate solo 900 gai/ha, 20 DAT, BRADC), 50%; in test [8] (Apera spica-venti, 480 h, pyridate solo 900 gai/ha) it was 30%. Besides, the “% activity” value in test [8] (solo pyridate (WP 45%) 450 gai/ha) stood at 0%.
